According to patent publication US8653069B2, “Aralkyl substituted piperidine or piperazine derivatives and their use for treating schizophrenia” (Jiangsu Hengyi Pharmaceutical Co., Ltd., priority 2008, dated 2014):
Where a name gives a salt, the structure may show the parent alone.

What follows are compounds tested against T1, dopamine D2 receptor (Homo sapiens, UniProt P14416) (assay: Dopamine D2 receptor-binding assay ([3H]Spiperone displacement)). Settings: inhibition of binding of 0.4 nM [3H]Spiperone, CHO-hD2L film product, room temperature 120 minutes; read-out: IC50 (affinity to D2 receptor).
T1 construct: expressed in transfected cells; host or cells: CHO-hD2L cells (membrane preparation)
T1 sequence (P14416 whole entry): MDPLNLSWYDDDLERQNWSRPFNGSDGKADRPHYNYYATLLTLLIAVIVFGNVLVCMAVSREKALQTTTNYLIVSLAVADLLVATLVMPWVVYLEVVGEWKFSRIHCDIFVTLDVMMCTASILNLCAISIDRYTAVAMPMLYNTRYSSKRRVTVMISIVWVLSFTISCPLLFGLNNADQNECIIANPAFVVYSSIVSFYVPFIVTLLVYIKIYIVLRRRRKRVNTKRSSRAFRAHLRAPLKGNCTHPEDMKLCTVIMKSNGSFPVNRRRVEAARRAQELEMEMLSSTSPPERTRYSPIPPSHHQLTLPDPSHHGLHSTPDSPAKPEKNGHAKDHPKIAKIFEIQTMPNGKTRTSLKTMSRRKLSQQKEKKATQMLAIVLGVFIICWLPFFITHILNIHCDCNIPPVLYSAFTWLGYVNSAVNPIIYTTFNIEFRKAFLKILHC
Method: A Dopamine D2 Receptor-Binding Assay
An isotope ligand for D2 receptor: [^3H]Spiperone (77.0 Ci/mmol); (+)Butaclamol; GF/C glass fiber media; a liposoluble scintillation solution; and the D2 receptor protein expressed by sf9 cells.
A binding assay of a film product of CHO-hD2L cells and [^3H]Spiperone is conducted in a 250 μl of 50 mM of Tris-HCl […] buffer (Ph=7.4) solution comprising 100 mM of NaCl, 1 mM of MgC12 and 1% of DMSO. A sample in duplicate containing compounds to be tested, 0.4 nM of [^3H]Spiperone and 12 ug of protein is maintained at room temperature for 120 minutes. The bound radioactive ligand is separated by flash filtration under reduced pressure using Whatman GF/B glass fiber filter pre-treated with 0.3% polyethylenelmine, and radioactivity maintained on the filter is measured using liquid scintillation spectrophotometry. The title compounds in the following examples are tested using the above test, which comprises first of all testing competitive inhibition rate of each compound at a concentration of 10 umol/L to binding of [^3H]Spiperone to D2 receptor through a rough screening; and compounds having inhibition rate higher than 95% are subjected to receptor binding assay under a series of concentrations to determine a half-inhibitory concentration (IC50, the concentration of a compound needed for inhibiting binding of 50% [^3H]Spiperone to D2 receptor). Two tubes under each concentration are measured, and each compound is subjected to two independent tests.

Row | Compound | IC50 [nM]
1 | 6-[4-(4-(3-(6-fluoro-benzisoxazolyl))-1-piperazinyl)-n-butoxy]-(1H)-indole [IV-3] | 12.3
2 | O=C1CCc2ccc(OCCCCN3CCN(c4noc5cc(Cl)ccc45)CC3)cc2N1 [I-1, 7-[4-(4-(6-chloro-benzisoxazolyl)-1-piperazinyl)-n-butoxy]-3,4-dihydro-2(1H)-quinolinone hydrochloride] | 25.7
3 | O=C1CCc2ccc(OCCCCN3CCN(c4noc5ccc(Cl)cc45)CC3)cc2N1 [I-2, 7-[4-(4-(5-chloro-benzisoxazolyl)-1-piperazinyl)-n-butoxy]-3,4-dihydro-2(1H)-quinolinone hydrochloride] | 56.8
4 | O=C1CCc2ccc(OCCCCN3CCN(c4noc5ccccc45)CC3)cc2N1 [I-3, 7-[4-(4-(benzisoxazolyl)-1-piperazinyl)-n-butoxy]-3,4-dihydro-2(1H)-quinolinone hydrochloride] | 99.3
5 | O=C1CCc2ccc(OCCCCN3CCN(c4noc5cc(F)ccc45)CC3)cc2N1 [I-4, 7-[4-(4-(6-fluoro-benzisoxazolyl)-1-piperazinyl)-n-butoxy]-3,4-dihydro-2(1H)-quinolinone hydrochloride] | 10.2
6 | O=C1CCc2ccc(OCCCCN3CCN(c4noc5cc(C(F)(F)F)ccc45)CC3)cc2N1 [I-5, 7-[4-(4-(6-trifluoromethyl-benzisoxazolyl)-1-piperazinyl)-n-butoxy]-3,4-dihydro-2(1H)-quinolinone hydrochloride] | 53.6
7 | Cc1ccc2onc(N3CCN(CCCCOc4ccc5c(c4)NC(=O)CC5)CC3)c2c1 [I-7, 7-[4-(4-(5-methyl-benzisoxazoly)-1-piperazinyl)-n-butoxy]-3,4-dihydro-2(1H)-quinolinone hydrochloride] | 290
8 | O=C1CCc2ccc(OCCCCN3CCN(c4noc5cc(O)ccc45)CC3)cc2N1 [I-8, 7-[4-(4-(6-hydroxy-benzisoxazolyl)-1-piperazinyl)-n-butoxy]-3,4-dihydro-2(1H)-quinolinone hydrochloride] | 157
9 | COc1ccc2onc(N3CCN(CCCCOc4ccc5c(c4)NC(=O)CC5)CC3)c2c1 [I-9, 7-[4-(4-(5-methoxy-benzisoxazolyl)-1-piperazinyl)-n-butoxy]-3,4-dihydro-2(1H)-quinolinone hydrochloride] | 25
10 | O=C1CCc2ccc(OCCCCN3CCN(c4noc5ccc(Br)cc45)CC3)cc2N1 [I-11, 7-[4-(4-(5-bromo-benzisoxazolyl)-1-piperazinyl)-n-butoxy]-3,4-dihydro-2(1H)-quinolinone hydrochloride] | 77.8
11 | COc1ccc2c(N3CCN(CCCCOc4ccc5c(c4)NC(=O)CC5)CC3)noc2c1Br [I-12, 7-[4-(4-(7-bromo-6-methoxy-benzisoxazolyl)-1-piperazinyl)-n-butoxy]-3,4-dihydro-2(1H)-quinolinone hydrochloride] | 10.2
12 | O=C1CCc2ccc(OCCCN3CCC(c4noc5cc(F)ccc45)CC3)cc2N1 [II-2, 7-[3-(4-(6-fluoro-benzisoxazolyl)-1-piperidinyl)-n-propoxy]-3,4-dihydro-2(1H)-quinolinone hydrochloride] | 16.2
13 | O=C1CCc2ccc(OCCCCCN3CCC(c4noc5cc(F)ccc45)CC3)cc2N1 [II-3, 7-[5-(4-(6-fluoro-benzisoxazolyl)-1-piperidinyl)-pentyloxy]-3,4-dihydro-2(1H)-quinolinone hydrochloride] | 202
14 | O=C1CCc2ccc(OCCCCN3CCC(c4noc5ccccc45)CC3)cc2N1 [II-4, 7-[(4-benzisoxazolyl-1-piperidinyl)-n-butoxy]-3,4-dihydro-2(1H)-quinolinone hydrochloride] | 23.6
15 | O=C1CCc2ccc(OCCCCN3CCC(c4noc5cc(Cl)ccc45)CC3)cc2N1 [II-5, 7-[4-(4-(6-chloro-benzisoxazolyl)-1-piperidinyl)-n-butoxy]-3,4-dihydro-2(1H)-quinolinone hydrochloride] | 15.8
